The source of these data is US7739055B2, “Methods and systems for generating and evaluating peptides” (priority 2005, dated 2010).

Read-outs that look alike come from different tables or passages of the source.

In one test the test system is Escherichia coli. Conditions: first concentration that prohibits growth by OD at 24 hours; Table 1.
Setting [1] is: first concentration that prohibits growth by OD at 24 hours, Table 1.

For LSAVGKIASKVVPSVIGAFK [Peptide 6], in the test with Escherichia coli, the “MIC E. coli” value is given as “+ (MIC greater than 256 ug/mL)”. For the same sequence, the “MIC B. cereus” value in the test on B. cereus (setting [1]) is “+ (MIC greater than 256 ug/mL)”.

In the case of LYSPTCVKAAVSRFIGKVSA [Shuffled 15], the “MIC E. coli” value against Escherichia coli is on record as “+ (MIC greater than 256 ug/mL)”. In addition, the “MIC B. cereus” value with B. cereus (setting [1]) is listed as “+ (MIC greater than 256 ug/mL)”.

Consider MKSIAKFIAKTVAKQGAKQG [Peptide 39], for which, in the test on Escherichia coli, the “MIC E. coli” value is recorded as “+ (MIC greater than 256 ug/mL)”. Further, the “MIC B. cereus” value in the test with B. cereus is given as “+ (key: +: MIC greater than 256 ug/mL; ++: MIC greater than 128 ug/mL, not sufficiently soluble to test as 256 ug/mL)”.

For the sequence MVVFSVPKFKSTVAKLLSSA [Shuffled 1], the “MIC E. coli” value with Escherichia coli is “+ (MIC greater than 256 ug/mL)”. The “MIC B. cereus” value against B. cereus (setting [1]) is listed as “+ (MIC greater than 256 ug/mL)”.

Turning to PKVVGLSIVVVKAKVSSALG [Shuffled 57], in the test on Escherichia coli, the “MIC E. coli” value is reported as “+ (MIC greater than 256 ug/mL)”. The “MIC B. cereus” value in the test with B. cereus (setting [1]) is “+ (MIC greater than 256 ug/mL)”.

As for PSLLYKAKAVFCKPSAVAVF [Shuffled 62], the “MIC E. coli” value in the test with Escherichia coli is recorded as “++ (MIC greater than 128 ug/mL, not sufficiently soluble to test as 256 ug/mL)”. Besides, the “MIC B. cereus” value in the test with B. cereus (setting [1]) is “++ (MIC greater than 128 ug/mL, not sufficiently soluble to test as 256 ug/mL)”.

For PVIGKLASKVVPSVFSMIKR [Peptide 7], in the test on Escherichia coli, the “MIC E. coli” value is recorded as “+ (MIC greater than 256 ug/mL)”. For the same sequence, the “MIC B. cereus” value in the test on B. cereus (setting [1]) was “+ (MIC greater than 256 ug/mL)”.

As for PVVFSVASKVVPSLISALKR [Peptide 25], the “MIC E. coli” value in the test with Escherichia coli was “+ (MIC greater than 256 ug/mL)”. Also, in the test with B. cereus, the “MIC B. cereus” value is on record as “+ (key: +: MIC greater than 256 ug/mL; ++: MIC greater than 128 ug/mL, not sufficiently soluble to test as 256 ug/mL)”.

As for PVVGRVASKVFPAVIGLVKK [Peptide 45], the “MIC E. coli” value in the test on Escherichia coli is listed as “+ (MIC greater than 256 ug/mL)”. For the same sequence, the “MIC B. cereus” value in the test on B. cereus (setting [1]) is recorded as “+ (MIC greater than 256 ug/mL)”.

For PYSLKNGENWLLSEEIIRYP [Peptide 50], the “MIC E. coli” value against Escherichia coli is listed as “+ (MIC greater than 256 ug/mL)”. For the same sequence, in the test on B. cereus (setting [1]), the “MIC B. cereus” value is listed as “+ (MIC greater than 256 ug/mL)”.

In the case of RKRKSDVDFEAEFELFEDDD [Peptide 19], in the test with Escherichia coli, the “MIC E. coli” value was “+ (MIC greater than 256 ug/mL)”. Moreover, the “MIC B. cereus” value in the test on B. cereus (setting [1]) is recorded as “+ (MIC greater than 256 ug/mL)”.

With SALGRLASKVVPAVIGKVTT [Peptide 56], in the test with Escherichia coli, the “MIC E. coli” value was “+ (MIC greater than 256 ug/mL)”. Also, in the test with B. cereus (setting [1]), the “MIC B. cereus” value is reported as “+ (MIC greater than 256 ug/mL)”.

Turning to SALGRVASKVFPAVYCSITK [Peptide 15], in the test with Escherichia coli, the “MIC E. coli” value is “+ (MIC greater than 256 ug/mL)”. Further, in the test on B. cereus (setting [1]), the “MIC B. cereus” value is “+ (MIC greater than 256 ug/mL)”.

Take SAVGKLASKVFPAVFSMVTK [Peptide 31]: in the test with Escherichia coli, the “MIC E. coli” value is “+ (MIC greater than 256 ug/mL)”. Moreover, in the test with B. cereus (setting [1]), the “MIC B. cereus” value was “+ (MIC greater than 256 ug/mL)”.

For the sequence SAVGSVASKVVPSLISKVTK [Peptide 36], the “MIC E. coli” value against Escherichia coli is “+ (MIC greater than 256 ug/mL)”. In addition, in the test with B. cereus (setting [1]), the “MIC B. cereus” value is given as “+ (MIC greater than 256 ug/mL)”.

In the case of SKFPLAGIFSVPGVKRVVVI [Shuffled 75], the “MIC E. coli” value with Escherichia coli is recorded as “+ (MIC greater than 256 ug/mL)”. In the test on B. cereus (setting [1]), the “MIC B. cereus” value is “+ (MIC greater than 256 ug/mL)”.

SRVPLKSPVKIVGSKVMIFA [Shuffled 7]: in the test with Escherichia coli, the “MIC E. coli” value is reported as “+ (MIC greater than 256 ug/mL)”. In the test on B. cereus (setting [1]), the “MIC B. cereus” value is given as “+ (MIC greater than 256 ug/mL)”.

For the sequence SSSIPIKMVLVRALVFVKSG [Shuffled 55], the “MIC E. coli” value against Escherichia coli is “+ (MIC greater than 256 ug/mL)”. Moreover, the “MIC B. cereus” value against B. cereus (setting [1]) was “+ (MIC greater than 256 ug/mL)”.

STVKVASKLAVVVSPISKGS [Shuffled 36]: the “MIC E. coli” value against Escherichia coli is “+ (MIC greater than 256 ug/mL)”. Moreover, the “MIC B. cereus” value in the test on B. cereus (setting [1]) is “+ (MIC greater than 256 ug/mL)”.

In the case of SVIGKIASKVVPSVYCAISK [Peptide 44], the “MIC E. coli” value in the test on Escherichia coli is “+ (MIC greater than 256 ug/mL)”. Further, the “MIC B. cereus” value against B. cereus (setting [1]) was “+ (MIC greater than 256 ug/mL)”.

As for SVKPVGSSVVKGTALVKFFG [Shuffled 34], the “MIC E. coli” value in the test with Escherichia coli was “+ (MIC greater than 256 ug/mL)”. Further, the “MIC B. cereus” value against B. cereus (setting [1]) was “+ (MIC greater than 256 ug/mL)”.
